Results reported in PubChem BioAssay (NCI).
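Briefly, cells in 96-well plates were exposed to five compound concentrations for 48 h, and endpoints were estimated by linear interpolation. TGI is the concentration that stops growth completely.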

Legend:
Test in all cases: inhibition of tumour cell growth, NCI panel, 48 h
786-0 renal = system: 786-0 renal
A498 renal = system: A498 renal
A549 NSCLC = system: A549 NSCLC
ACHN renal = system: ACHN renal
BT-549 breast = system: BT-549 breast
CAKI-1 renal = system: CAKI-1 renal
CCRF-CEM leukemia = system: CCRF-CEM leukemia
COLO 205 colon = system: COLO 205 colon
DU-145 prostate = system: DU-145 prostate
EKVX NSCLC = system: EKVX NSCLC
HCC-2998 colon = system: HCC-2998 colon
HCT-116 colon = system: HCT-116 colon
HCT-15 colon = system: HCT-15 colon
HL-60(TB) leukemia = system: HL-60(TB) leukemia
HOP-62 NSCLC = system: HOP-62 NSCLC
HOP-92 NSCLC = system: HOP-92 NSCLC
HS 578T breast = system: HS 578T breast
HT29 colon = system: HT29 colon
IGROV1 ovarian = system: IGROV1 ovarian
K-562 leukemia = system: K-562 leukemia
KM12 colon = system: KM12 colon
LOX IMVI melanoma = system: LOX IMVI melanoma
M14 melanoma = system: M14 melanoma
MALME-3M melanoma = system: MALME-3M melanoma
MCF7 breast = system: MCF7 breast
MDA-MB-231 breast = system: MDA-MB-231 breast
MDA-MB-435 = system: MDA-MB-435
MDA-N = system: MDA-N
MOLT-4 leukemia = system: MOLT-4 leukemia
NCI-H226 lung = system: NCI-H226 lung
NCI-H23 lung = system: NCI-H23 lung
NCI-H460 lung = system: NCI-H460 lung
NCI-H522 lung = system: NCI-H522 lung
NCI/ADR-RES ovarian = system: NCI/ADR-RES ovarian
OVCAR-3 ovarian = system: OVCAR-3 ovarian
OVCAR-4 ovarian = system: OVCAR-4 ovarian
OVCAR-5 ovarian = system: OVCAR-5 ovarian
OVCAR-8 ovarian = system: OVCAR-8 ovarian
PC-3 prostate = system: PC-3 prostate
RPMI-8226 leukemia = system: RPMI-8226 leukemia
RXF 393 renal = system: RXF 393 renal
SF-268 CNS = system: SF-268 CNS
SF-295 CNS = system: SF-295 CNS
SF-539 CNS = system: SF-539 CNS
SK-MEL-2 melanoma = system: SK-MEL-2 melanoma
SK-MEL-28 melanoma = system: SK-MEL-28 melanoma
SK-MEL-5 melanoma = system: SK-MEL-5 melanoma
SK-OV-3 ovarian = system: SK-OV-3 ovarian
SN12C renal = system: SN12C renal
SNB-19 CNS = system: SNB-19 CNS
SNB-75 CNS = system: SNB-75 CNS
SR leukemia = system: SR leukemia
SW-620 colon = system: SW-620 colon
T-47D breast = system: T-47D breast
TK-10 renal = system: TK-10 renal
U251 CNS = system: U251 CNS
UACC-257 melanoma = system: UACC-257 melanoma
UACC-62 melanoma = system: UACC-62 melanoma
UO-31 renal = system: UO-31 renal

O=c1oc2ccccc2c(O)c1/C=N\c1nc(-c2ccc(O)c(O)c2)cs1 gave a TGI (786-0 renal) of 10.2 µM, a TGI (A498 renal) of over 46.7 µM and a TGI (A549 NSCLC) of 26.6 µM. It also gave a TGI (ACHN renal) of 9.77 µM, a TGI (BT-549 breast) of 25.8 µM and a TGI (CAKI-1 renal) of 16.5 µM. It also gave a TGI (CCRF-CEM leukemia) of 4.58 µM, a TGI (COLO 205 colon) of 6.76 µM and a TGI (DU-145 prostate) of 17.9 µM. It also gave a TGI (EKVX NSCLC) of 28.4 µM, a TGI (HCC-2998 colon) of 16.3 µM and a TGI (HCT-116 colon) of 7.61 µM. It also gave a TGI (HCT-15 colon) of 14.9 µM, a TGI (HL-60(TB) leukemia) of 8.31 µM and a TGI (HOP-62 NSCLC) of 31.2 µM. The TGI (HOP-92 NSCLC) was 28.5 µM, the TGI (HS 578T breast) was over 80.8 µM and the TGI (HT29 colon) was 23.6 µM. The TGI (IGROV1 ovarian) was 23.9 µM, the TGI (K-562 leukemia) was 10.4 µM and the TGI (KM12 colon) was 29.6 µM. For the same compound, the TGI (LOX IMVI melanoma) was 14.7 µM, the TGI (M14 melanoma) was 10.3 µM and the TGI (MALME-3M melanoma) was 9.17 µM. The TGI (MCF7 breast) was 17.4 µM, the TGI (MDA-MB-231 breast) was 18.7 µM and the TGI (MDA-MB-435) was 20.4 µM. The TGI (MDA-N) was 18.8 µM, the TGI (MOLT-4 leukemia) was 3.34 µM and the TGI (NCI-H226 lung) was 42.2 µM. The TGI (NCI-H23 lung) was 9.87 µM, the TGI (NCI-H460 lung) was 14.3 µM and the TGI (NCI-H522 lung) was 5.29 µM. The TGI (NCI/ADR-RES ovarian) was over 72.2 µM, the TGI (OVCAR-3 ovarian) was 5.94 µM and the TGI (OVCAR-4 ovarian) was 27.5 µM. The TGI (OVCAR-5 ovarian) was 31.9 µM, the TGI (OVCAR-8 ovarian) was over 100 µM and the TGI (PC-3 prostate) was 10.6 µM. It also gave a TGI (RPMI-8226 leukemia) of 5.3 µM, a TGI (RXF 393 renal) of 18.1 µM and a TGI (SF-268 CNS) of 22.1 µM. It also gave a TGI (SF-295 CNS) of over 100 µM, a TGI (SF-539 CNS) of 12.5 µM and a TGI (SK-MEL-2 melanoma) of 7.04 µM. It also gave a TGI (SK-MEL-28 melanoma) of 24.1 µM, a TGI (SK-MEL-5 melanoma) of 16.9 µM and a TGI (SK-OV-3 ovarian) of 21.4 µM. The TGI (SN12C renal) was 15.6 µM, the TGI (SNB-19 CNS) was 39.1 µM and the TGI (SNB-75 CNS) was 15.4 µM. For the same compound, the TGI (SR leukemia) was 4.43 µM, the TGI (SW-620 colon) was 9.64 µM and the TGI (T-47D breast) was 32 µM. It also gave a TGI (TK-10 renal) of 10.7 µM, a TGI (U251 CNS) of 17.3 µM and a TGI (UACC-257 melanoma) of 10.3 µM. It also gave a TGI (UACC-62 melanoma) of 16.9 µM and a TGI (UO-31 renal) of 9.24 µM.

Cc1ccc(S(=O)(=O)/N=C(\NO)Nc2ccc(Cl)c(Cl)c2)cc1 was tested, and the TGI (786-0 renal) was 16.2 µM, the TGI (A498 renal) was 23.7 µM and the TGI (A549 NSCLC) was 26.9 µM. For the same compound, the TGI (ACHN renal) was 24.9 µM, the TGI (BT-549 breast) was 23.8 µM and the TGI (CAKI-1 renal) was 19.2 µM. It also gave a TGI (CCRF-CEM leukemia) of 15.9 µM, a TGI (COLO 205 colon) of 30.8 µM and a TGI (DU-145 prostate) of 24.6 µM. For the same compound, the TGI (EKVX NSCLC) was 19.9 µM, the TGI (HCC-2998 colon) was 4.93 µM and the TGI (HCT-116 colon) was 17.7 µM. For the same compound, the TGI (HCT-15 colon) was 28.4 µM, the TGI (HL-60(TB) leukemia) was 5.42 µM and the TGI (HOP-62 NSCLC) was 27.4 µM. For the same compound, the TGI (HOP-92 NSCLC) was 11.8 µM, the TGI (HS 578T breast) was 27.3 µM and the TGI (HT29 colon) was 25.5 µM. For the same compound, the TGI (IGROV1 ovarian) was 31.3 µM, the TGI (K-562 leukemia) was 35 µM and the TGI (KM12 colon) was 25.4 µM. The TGI (LOX IMVI melanoma) was 19 µM, the TGI (M14 melanoma) was 18.3 µM and the TGI (MALME-3M melanoma) was 7.41 µM. The TGI (MCF7 breast) was 41.3 µM, the TGI (MDA-MB-231 breast) was 24.3 µM and the TGI (MDA-MB-435) was 13.6 µM. For the same compound, the TGI (MDA-N) was 14.5 µM, the TGI (MOLT-4 leukemia) was 5.45 µM and the TGI (NCI-H226 lung) was 34.7 µM. The TGI (NCI-H23 lung) was 37.2 µM, the TGI (NCI-H460 lung) was 23.7 µM and the TGI (NCI-H522 lung) was 19.1 µM. It also gave a TGI (NCI/ADR-RES ovarian) of 46.3 µM, a TGI (OVCAR-3 ovarian) of 16.9 µM and a TGI (OVCAR-4 ovarian) of 21.8 µM. For the same compound, the TGI (OVCAR-5 ovarian) was 12.6 µM, the TGI (OVCAR-8 ovarian) was 24.4 µM and the TGI (PC-3 prostate) was 18.4 µM. The TGI (RPMI-8226 leukemia) was 30.9 µM, the TGI (RXF 393 renal) was 24.2 µM and the TGI (SF-268 CNS) was 19.9 µM. For the same compound, the TGI (SF-295 CNS) was 31.8 µM, the TGI (SF-539 CNS) was 24.5 µM and the TGI (SK-MEL-2 melanoma) was 22.4 µM. The TGI (SK-MEL-28 melanoma) was 13.3 µM, the TGI (SK-MEL-5 melanoma) was 4.82 µM and the TGI (SK-OV-3 ovarian) was 28.5 µM. It also gave a TGI (SN12C renal) of 5.58 µM, a TGI (SNB-19 CNS) of 21.4 µM and a TGI (SNB-75 CNS) of 17.6 µM. For the same compound, the TGI (SR leukemia) was 21.5 µM, the TGI (SW-620 colon) was 25.4 µM and the TGI (T-47D breast) was 37 µM. It also gave a TGI (TK-10 renal) of 27.8 µM, a TGI (U251 CNS) of 16.8 µM and a TGI (UACC-257 melanoma) of 15.3 µM. For the same compound, the TGI (UACC-62 melanoma) was 24.1 µM and the TGI (UO-31 renal) was 18.3 µM.
